{"source": "patent US20260146232A1", "about": "“METHODS FOR PROMOTING HOMING AND ENGRAFTMENT OF HEMATOPOIETIC STEM CELLS” (The Trustees of Indiana University, priority 2022, published 2026)", "key": {"human CB CD34+ cells [1]": {"system": "human CB CD34+ cells", "test": "Chemotaxis (transwell migration) assay toward SDF-1, CB CD34+ cells", "format": "cell-based", "settings": "for chemotaxis of human CB CD34+ cells toward SDF-1: 20 h", "method": "(§1) Chemotaxis assay. Chemotaxis assays were performed in Costar 24-well trans-well plates with 6.5 mm diameter inserts with 5.0 μm pores (Corning, NY, USA). Briefly, 650 μL of IMDM medium (37° C.) that contained 0.5% bovine serum albumin (Sigma-Aldrich) and SDF-1 (0, 50 ng/mL) was added to the bottom well. Cells were suspended at 1×10^5 cells/100 μL in IMDM medium and loaded to the upper chamber of the trans-well. Trans-well plates were placed in a 37° C. incubator with 95% humidity and 5% CO2 for 4 hours. Percent migration was measured using flow cytometry with number of cells in the bottom chamber divided by number of cells placed in the upper chamber. To calculate the percent migration of CB HSCs, phenotypic HSCs was determined by surface staining and flow cytometry analysis. Human CB HSC chemotaxis was calculated as number of HSCs in the bottom chamber divided by number of HSCs loaded in the upper chamber. For AMD3100 administration, cells were treated with 5 μg/mL AMD3100 (239820, Sigma-Aldrich) for 30 min right before the chemotaxis assay."}, "CXCR4": {"system": "CXCR4", "test": "Surface CXCR4 protein level (MFI) by flow cytometry", "format": "cell-based, human", "settings": "for effect of FTO inhibitor on AGII-induced CXCR4 upregulation: AGII-treated cells plus FTO inhibitor; for CXCR4 expression (MFI of cell surface CXCR4 protein level): human CB CD34+ cells treated 20 h, screen 10 μM unless otherwise stated; for effect of inhibition of mir-145 (sh-mir-145) on compound-induced CXCR4 expression: human CB CD34+ cells treated with compound and sh-mir-145", "from_the_text": "(§2) Human CD34^+ CB cell collection and culture. Umbilical CB units were supplied by Cleveland Cord Blood Bank and CordUse, Orlando, FL, USA. All studies were approved by the institutional review board of the IUSM. Mononuclear cells were isolated by density gradient centrifugation and CD34^+ cells were isolated by immunomagnetic selection kit (Miltenyi Biotec, 130-046-702). […] For molecular compound treatment, all reagents were ordered from Cayman Chemical (Ann Arbor, MI, USA). Briefly, molecular compounds were added in the initiation of human CB CD34^+ cells culture, the time and concentration of each molecular compound for cell treatment was shown in figure legends.\nFlow cytometry. Fresh or cultured CB cells were sorted for different phenotypes by using the following antibodies. Antibodies were used to detect CD34 (BV786, BD Biosciences, 744741), CD34 (FITC, BD Biosciences, 340668), CD45RA (Taxe-red, BD Biosciences, 562298), CD90 (BV421, BD Biosciences, 562556), CD49f (cy5.5, BD Biosciences, 562495), CD38 (PE, BD Biosciences, 560981). CD3 (BV421, BD Biosciences, 562427), CD33 (PE, BD Biosciences, 555450), CD19 (PE, BD Biosciences, 555413), CXCR4 (APC, BD Biosciences, 555976) and CD45 (APC, BD Biosciences, 555485). Gating strategy of phenotypic HSCs were shown in supplementary FIG. 2B."}, "YTHDF2": {"system": "YTHDF2", "test": "Relative YTHDF2 expression level in human CB CD34+ cells", "format": "cell-based", "settings": "human CB CD34+ cells treated 20 hours", "from_the_text": "as §2\nRNA extraction and real-time PCR. After cells were harvested by FACS, RNA was extracted by a RNeasy Mini Kit following manufacturer's protocol (Qiagen, 74106). Total RNA was reverse-transcribed by use of Superscript III kit (ThermoFisher, 18080093). Quantitative real-time PCR reactions were performed by SYBR Green PCR Master Mix (Thermo Fisher, Florence, KY, USA) and an Agilent Mx3000P QPCR System. Expression of housekeeping gene GAPDH was used as an internal control. Data are shown as relative mRNA level normalized to levels in vehicle control, set to 1."}, "mir-145": {"system": "mir-145", "test": "Relative mir-145 expression level in human CB CD34+ cells", "format": "cell-based", "settings": "human CB CD34+ cells treated 20 hours", "from_the_text": "Human CD34^+ CB cell collection and culture. Umbilical CB units were supplied by Cleveland Cord Blood Bank and CordUse, Orlando, FL, USA. All studies were approved by the institutional review board of the IUSM. Mononuclear cells were isolated by density gradient centrifugation and CD34^+ cells were isolated by immunomagnetic selection kit (Miltenyi Biotec, 130-046-702). […] For molecular compound treatment, all reagents were ordered from Cayman Chemical (Ann Arbor, MI, USA). Briefly, molecular compounds were added in the initiation of human CB CD34^+ cells culture, the time and concentration of each molecular compound for cell treatment was shown in figure legends. RNA extraction and real-time PCR. After cells were harvested by FACS, RNA was extracted by a RNeasy Mini Kit following manufacturer's protocol (Qiagen, 74106). Total RNA was reverse-transcribed by use of Superscript III kit (ThermoFisher, 18080093). Quantitative real-time PCR reactions were performed by SYBR Green PCR Master Mix (Thermo Fisher, Florence, KY, USA) and an Agilent Mx3000P QPCR System. Expression of housekeeping gene GAPDH was used as an internal control. Data are shown as relative mRNA level normalized to levels in vehicle control, set to 1."}, "[2]": {"system": "phenotypic HSC (CD34+ CD38- CD45RA- CD90+ CD49f+)", "test": "Chemotaxis (transwell migration) assay toward SDF-1, phenotypic HSCs", "format": "cell-based, human", "settings": "20 h", "method": "as §1"}, "human CB CD34+ cells [3]": {"system": "human CB CD34+ cells", "test": "Long-term engraftment / limiting dilution analysis (LDA) in NSG mice", "format": "in vivo", "settings": "for engraftment in NSG mice vs vehicle control (human CD45+ cells in BM): 20 h, 4 months after transplantation; for human myeloid and B-cell chimerism in BM: 10,000 CB CD34+ cells; for engraftment in secondary recipients vs vehicle: secondary NSG mice at 4 months; for SRC frequency (Poisson distribution analysis): vehicle 1/4761", "method": "Limiting dilution analysis (LDA). Frequency of human SCID repopulating cells (SRCs) was determined by LDA as reported before. Increasing doses of GFP overexpressing CD34^+ cells (2500, 5000 or 10000 cells) were intravenously injected into sublethally irradiated NSG recipient mice (350 cGy; 137Cs source, single dose). Four months after transplantation, the percentage of GFP^+ human CD45^+ cell chimerism was analyzed by immunostaining and flow cytometry. For long-term engraftment assays that assess the self-renewal capacity of HSC, 3×10^6 BM cells from primary recipients of the 10000-cell group were intravenously transplanted into secondary sub-lethally irradiated NSG recipient mice."}, "CB CD34+ cells": {"system": "CB CD34+ cells", "test": "Colony-forming unit (CFU) assay", "format": "cell-based, human", "settings": "20 h"}, "human CB CD34+ cells [4]": {"system": "human CB CD34+ cells", "test": "Homing assay of treated human CB CD34+ cells in NSG mice", "format": "in vivo", "settings": "Raloxifene 40 μM, 20 h; 500,000 cells; 24 h after transplantation", "method": "Homing assay. Homing of human CB CD34^+ cells was evaluated in NSG mice. Molecular compounds treated or siRNA transfected human CB CD34+ cells (500,000 for each mouse) were intravenously injected into sub-lethally irradiated (350 cGy) NSG mice. After 24 h, these recipient mice were sacrificed, BM cells from each mouse were collected. Cells were stained with anti-human CD45 antibody, then resuspended in 1% formaldehyde buffer. Flow cytometry analysis was performed to determine the percentage of human CD45^+ cells. BM cells from non-transplanted NSG mice served as negative controls."}}}
{"smiles": "c1cc(CN2CCCNCCNCCCNCC2)ccc1CN1CCCNCCNCCCNCC1", "note": "[AMD3100]", "values": [{"measurement": "blocking of Raloxifene- and Imatinib-enhanced chemotaxis toward SDF-1", "setting": "human CB CD34+ cells [1]; 5 μg/mL AMD3100 for 30 min before the chemotaxis assay", "result": "fully blocked"}, {"measurement": "blocking of AGII-enhanced migration toward SDF-1", "setting": "human CB CD34+ cells [1]; AMD3100 5 μg/mL for 30 min before assay, AGII-treated cells", "result": "blocked"}, {"measurement": "blocking of chemotaxis of human CB CD34+ cells to SDF-1", "setting": "human CB CD34+ cells [1]; AMD3100, Control or si-YTHDF2 transfected cells", "result": "blocked"}]}
{"smiles": "Cc1noc(C)c1-c1cc(Cl)c(Nc2ccccc2C(=O)NO)c(Cl)c1", "note": "[FB23-2]", "values": [{"measurement": "effect of FTO inhibitor on AGII-induced CXCR4 upregulation", "setting": "CXCR4", "result": "repressed"}]}
{"smiles": "C[C@@H]1C[C@H]2[C@@H]3CCC4=CC(=O)C=C[C@]4(C)[C@@]3(Cl)[C@@H](O)C[C@]2(C)[C@@]1(O)C(=O)CCl", "note": "[Mometasone]", "values": [{"measurement": "YTHDF2 expression", "setting": "YTHDF2", "result": "downregulated"}, {"measurement": "CXCR4 expression (MFI of cell surface CXCR4 protein level)", "setting": "CXCR4", "result": "strongly upregulated"}, {"measurement": "effect of inhibition of mir-145 (sh-mir-145) on compound-induced CXCR4 expression", "setting": "CXCR4", "result": "did not affect"}, {"measurement": "mir-145 expression", "setting": "mir-145", "result": "strongly upregulated"}]}
{"smiles": "CC#CCC(C)[C@H](O)/C=C/[C@@H]1[C@H]2C/C(=C/CCCC(=O)O)C[C@H]2C[C@H]1O", "note": "(some centres unmarked) [Iloprost]", "values": [{"measurement": "YTHDF2 expression", "setting": "YTHDF2", "result": "downregulated"}, {"measurement": "CXCR4 expression (MFI of cell surface CXCR4 protein level)", "setting": "CXCR4", "result": "strongly upregulated"}, {"measurement": "effect of inhibition of mir-145 (sh-mir-145) on compound-induced CXCR4 expression", "setting": "CXCR4", "result": "did not affect"}, {"measurement": "mir-145 expression", "setting": "mir-145", "result": "strongly upregulated"}]}
{"smiles": "Cc1ccc(NC(=O)c2ccc(CN3CCN(C)CC3)cc2)cc1Nc1nccc(-c2cccnc2)n1", "note": "[Imatinib]", "values": [{"measurement": "chemotaxis of human CB CD34+ cells toward SDF-1", "setting": "human CB CD34+ cells [1]; Imatinib 10 μM", "result": "significantly enhanced"}, {"measurement": "migration to SDF-1 in phenotypic HSC population", "setting": "[2]; Imatinib 10 μM", "result": "Enhanced migration"}, {"measurement": "engraftment in NSG mice vs vehicle control (human CD45+ cells in BM)", "setting": "human CB CD34+ cells [3]; Imatinib 10 μM", "result": "significantly elevated"}, {"measurement": "human myeloid and B-cell chimerism in BM", "setting": "human CB CD34+ cells [3]; Imatinib-treated cells", "result": "increased"}, {"measurement": "engraftment in secondary recipients vs vehicle", "setting": "human CB CD34+ cells [3]; Imatinib-treated cells", "result": "Enhanced engraftment"}, {"measurement": "SRC frequency (Poisson distribution analysis)", "setting": "human CB CD34+ cells [3]; Imatinib-treated cells", "result": "1/1406"}, {"measurement": "colony output vs control group", "setting": "CB CD34+ cells; Imatinib 10 μM", "result": "no significant difference"}]}
{"smiles": "Cc1ccc(Cl)c(Nc2ccccc2C(=O)O)c1Cl", "note": "[Meclofenamic Acid]", "values": [{"measurement": "effect of FTO inhibitor on AGII-induced CXCR4 upregulation", "setting": "CXCR4", "result": "repressed"}]}
{"smiles": "O=C(c1ccc(OCCN2CCCCC2)cc1)c1c(-c2ccc(O)cc2)sc2cc(O)ccc12", "note": "[Raloxifene]", "values": [{"measurement": "chemotaxis of human CB CD34+ cells toward SDF-1", "setting": "human CB CD34+ cells [1]; Raloxifene 40 μM", "result": "significantly enhanced"}, {"measurement": "migration to SDF-1 in phenotypic HSC population", "setting": "[2]; Raloxifene 40 μM", "result": "Enhanced migration"}, {"measurement": "YTHDF2 expression", "setting": "YTHDF2", "result": "downregulated"}, {"measurement": "engraftment in NSG mice vs vehicle control (human CD45+ cells in BM)", "setting": "human CB CD34+ cells [3]; Raloxifene 40 μM", "result": "significantly elevated"}, {"measurement": "human myeloid and B-cell chimerism in BM", "setting": "human CB CD34+ cells [3]; Raloxifene-treated cells", "result": "increased"}, {"measurement": "engraftment in secondary recipients vs vehicle", "setting": "human CB CD34+ cells [3]; Raloxifene-treated cells", "result": "Enhanced engraftment"}, {"measurement": "SRC frequency (Poisson distribution analysis)", "setting": "human CB CD34+ cells [3]; Raloxifene-treated cells", "result": "1/1818"}, {"measurement": "CXCR4 expression (MFI of cell surface CXCR4 protein level)", "setting": "CXCR4", "result": "strongly upregulated"}, {"measurement": "effect of inhibition of mir-145 (sh-mir-145) on compound-induced CXCR4 expression", "setting": "CXCR4", "result": "significantly blocked"}, {"measurement": "colony output vs control group", "setting": "CB CD34+ cells; Raloxifene 40 μM", "result": "no significant difference"}, {"measurement": "homing efficiency (human CD45+ cells in BM)", "setting": "human CB CD34+ cells [4]", "result": "dramatically increased"}, {"measurement": "mir-145 expression", "setting": "mir-145", "result": "strongly upregulated"}]}
